Experimental data as given in US10869940B2, “Targeted photoacoustic compounds, formulations, and uses thereof” (The Board of Trustees of the Leland Stanford Junior …, priority 2015, dated 2020).

Molecular target: T1, PSMA expressing PC3 PiP cells (Homo sapiens, UniProt Q04609)
T1 construct: expressed in transfected cells; host or cells: PC3 PIP cells
Test: Binding of the PSMA targeting photoacoustic compound to PSMA-expressing PC3 PIP cells

T1 sequence (Q04609 whole entry): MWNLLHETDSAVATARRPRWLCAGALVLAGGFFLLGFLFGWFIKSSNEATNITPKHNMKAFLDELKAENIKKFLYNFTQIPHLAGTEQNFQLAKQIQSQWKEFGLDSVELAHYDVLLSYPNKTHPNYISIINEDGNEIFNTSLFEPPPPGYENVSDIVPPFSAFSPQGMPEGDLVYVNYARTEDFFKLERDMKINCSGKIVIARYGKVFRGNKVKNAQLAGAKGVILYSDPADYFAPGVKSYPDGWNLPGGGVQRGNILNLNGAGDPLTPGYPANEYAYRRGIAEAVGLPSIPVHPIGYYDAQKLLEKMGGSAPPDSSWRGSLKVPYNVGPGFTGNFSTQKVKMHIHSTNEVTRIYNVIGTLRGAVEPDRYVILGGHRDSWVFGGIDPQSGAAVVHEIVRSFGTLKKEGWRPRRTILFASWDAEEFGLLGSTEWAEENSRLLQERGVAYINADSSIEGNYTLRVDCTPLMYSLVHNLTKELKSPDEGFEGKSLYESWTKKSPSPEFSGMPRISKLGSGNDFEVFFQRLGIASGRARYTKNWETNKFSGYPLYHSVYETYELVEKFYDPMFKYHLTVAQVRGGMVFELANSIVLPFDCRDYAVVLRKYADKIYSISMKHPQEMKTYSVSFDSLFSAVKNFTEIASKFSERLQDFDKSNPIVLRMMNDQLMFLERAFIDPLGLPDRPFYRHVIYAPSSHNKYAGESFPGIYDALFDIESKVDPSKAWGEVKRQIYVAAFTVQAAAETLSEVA

## O=C(O)CCC(CP(=O)(O)O)C(=O)O (stereo not shown) [2-PMPA, 2-(phosphonomethyl)pentane-1,5 dioic acid]
  blocking of binding to PC3 PIP cells by co-incubation with 2-PMPA: efficiently blocked
